Laboratory results from patent US6358885B1, “Substituted phenylheterocyclic herbicides” (Mississippi State University, priority 1992, dated 2002).

Experiments:
Test in all cases: Test G preemergence/postemergence greenhouse plant response rating 0 to 100
alfalfa = type: in vivo, Medicago ativa; settings: 0 to 100 scale
From the text: (§1) Seeds, rhizomes, or plant parts of alfalfa (Medicago ativa), annual bluegrass (Poa annua), bermudagrass (Cynodon dactylon), broadleaf signalgrass (Brachiaria plantaginea), common purslane (Portulaca oleracea), common ragweed (Ambrosia elatior), […] (Paspalum dilatatum), goosegrass (Eleusine indica), guineagrass (Panicum maximum), […] exaltata), johnsongrass (Sorghum halepense), large crabgrass (Digitaria sanguinalis), peanut (Arachis hypoagaea), pitted morningglory (Ipomoea lacunosa), purple nutsedge (Cyperus rotundus), sandbur (Cenchrus echinatus), smooth crabgrass (Digitaria ischaemum) and yellow nutsedge (Cyperus esculentus) were planted into greenhouse pots containing greenhouse planting medium. Each pot contained only one plant species. The test compound was dissolved in a non-phytotoxic solvent and applied preemergence and/or postemergence to the plants. Preemergence applications were made within one day of planting the seeds or plant parts. Postemergence applications were applied when the plants were in the two to four leaf stage (three to twenty cm). Test chemicals were dissolved in a non-phytotoxic solvent and applied preemergence and postemergence to the plants. Untreated control plants and treated plants were placed in the greenhouse and visually evaluated for injury at 13 to 21 days after herbicide application. […] A dash (-) response indicates no test result.

annual bluegrass = type: in vivo, Poa annua; settings: 0 to 100 scale
From the text: as §1

bermudagrass = type: in vivo, Cynodon dactylon; settings: 0 to 100 scale
From the text: as §1

broadleaf signalgrass = type: in vivo, Brachiaria plantaginea; settings: 0 to 100 scale
From the text: as §1

common purslane = type: in vivo, Portulaca oleracea; settings: 0 to 100 scale
From the text: as §1

common ragweed = type: in vivo, Ambrosia elatior; settings: 0 to 100 scale
From the text: as §1

dallisgrass = type: in vivo, Paspalum dilatatum; settings: 0 to 100 scale
From the text: as §1

goosegrass = type: in vivo, Eleusine indica; settings: 0 to 100 scale
From the text: as §1

guineagrass = type: in vivo, Panicum maximum; settings: 0 to 100 scale
From the text: as §1

itchgrass = type: in vivo, Rottboellia exaltata; settings: 0 to 100 scale
From the text: as §1

johnsongrass = type: in vivo, Sorghum halepense; settings: 0 to 100 scale
From the text: as §1

large crabgrass = type: in vivo, Digitaria sanguinalis; settings: 0 to 100 scale
From the text: as §1

peanut = type: in vivo, Arachis hypoagaea; settings: 0 to 100 scale
From the text: as §1

pitted morningglory = type: in vivo, Ipomoea lacunosa; settings: 0 to 100 scale
From the text: as §1

purple nutsedge = type: in vivo, Cyperus rotundus; settings: Rate 125 g/ha, 0 to 100 scale
From the text: as §1

sandbur = type: in vivo, Cenchrus echinatus; settings: 0 to 100 scale
From the text: as §1

smooth crabgrass = type: in vivo, Digitaria ischaemum; settings: 0 to 100 scale
From the text: as §1

yellow nutsedge = type: in vivo, Cyperus esculentus; settings: Rate 125 g/ha, 0 to 100 scale
From the text: as §1

Fc1cc(Cl)c(OCc2ccccc2)cc1-c1nn2c(c1Cl)CCCC2 [Compound 22]
Plant response rating, Alfalfa Var. (alfalfa; POSTEMERGENCE, Rate 125 g/ha): 0 | Plant response rating, Alfalfa Var. (alfalfa; POSTEMERGENCE, Rate 250 g/ha): 0 | Plant response rating, Alfalfa Var. (alfalfa; PREEMERGENCE, Rate 125 g/ha): 0 | Plant response rating, Alfalfa Var. (alfalfa; PREEMERGENCE, Rate 250 g/ha): 0 | Plant response rating, Ann Bluegrass (annual bluegrass; POSTEMERGENCE, Rate 125 g/ha): 0 | Plant response rating, Ann Bluegrass (annual bluegrass; POSTEMERGENCE, Rate 250 g/ha): 0 | Plant response rating, Ann Bluegrass (annual bluegrass; PREEMERGENCE, Rate 125 g/ha): 0 | Plant response rating, Ann Bluegrass (annual bluegrass; PREEMERGENCE, Rate 250 g/ha): 0 | Plant response rating, Bermudagrass (bermudagrass; POSTEMERGENCE, Rate 125 g/ha): 20 | Plant response rating, Bermudagrass (bermudagrass; POSTEMERGENCE, Rate 250 g/ha): 0 | Plant response rating, Bermudagrass (bermudagrass; PREEMERGENCE, Rate 125 g/ha): 0 | Plant response rating, Bermudagrass (bermudagrass; PREEMERGENCE, Rate 250 g/ha): 0 | Plant response rating, Brdlf Sgnlgrass (broadleaf signalgrass; POSTEMERGENCE, Rate 125 g/ha): 0 | Plant response rating, Brdlf Sgnlgrass (broadleaf signalgrass; POSTEMERGENCE, Rate 250 g/ha): 0 | Plant response rating, Brdlf Sgnlgrass (broadleaf signalgrass; PREEMERGENCE, Rate 125 g/ha): 0 | Plant response rating, Brdlf Sgnlgrass (broadleaf signalgrass; PREEMERGENCE, Rate 250 g/ha): 0 | Plant response rating, Cmn Purslane (common purslane; POSTEMERGENCE, Rate 125 g/ha): 80 | Plant response rating, Cmn Purslane (common purslane; POSTEMERGENCE, Rate 250 g/ha): 70 | Plant response rating, Cmn Purslane (common purslane; PREEMERGENCE, Rate 125 g/ha): 0 | Plant response rating, Cmn Purslane (common purslane; PREEMERGENCE, Rate 250 g/ha): 0 | Plant response rating, Cmn Ragweed (common ragweed; POSTEMERGENCE, Rate 125 g/ha): 70 | Plant response rating, Cmn Ragweed (common ragweed; POSTEMERGENCE, Rate 250 g/ha): 20 | Plant response rating, Cmn Ragweed (common ragweed; PREEMERGENCE, Rate 125 g/ha): 0 | Plant response rating, Cmn Ragweed (common ragweed; PREEMERGENCE, Rate 250 g/ha): 0 | Plant response rating, Dallisgrass (dallisgrass; POSTEMERGENCE, Rate 125 g/ha): 0 | Plant response rating, Dallisgrass (dallisgrass; POSTEMERGENCE, Rate 250 g/ha): 0 | Plant response rating, Dallisgrass (dallisgrass; PREEMERGENCE, Rate 125 g/ha): 0 | Plant response rating, Dallisgrass (dallisgrass; PREEMERGENCE, Rate 250 g/ha): 0 | Plant response rating, Goosegrass (goosegrass; POSTEMERGENCE, Rate 125 g/ha): 0 | Plant response rating, Goosegrass (goosegrass; POSTEMERGENCE, Rate 250 g/ha): 0 | Plant response rating, Goosegrass (goosegrass; PREEMERGENCE, Rate 125 g/ha): 0 | Plant response rating, Goosegrass (goosegrass; PREEMERGENCE, Rate 250 g/ha): 0 | Plant response rating, Guineagrass (guineagrass; POSTEMERGENCE, Rate 125 g/ha): 0 | Plant response rating, Guineagrass (guineagrass; POSTEMERGENCE, Rate 250 g/ha): 0 | Plant response rating, Guineagrass (guineagrass; PREEMERGENCE, Rate 125 g/ha): 0 | Plant response rating, Guineagrass (guineagrass; PREEMERGENCE, Rate 250 g/ha): 0 | Plant response rating, Itchgrass (itchgrass; POSTEMERGENCE, Rate 125 g/ha): 0 | Plant response rating, Itchgrass (itchgrass; POSTEMERGENCE, Rate 250 g/ha): 0 | Plant response rating, Itchgrass (itchgrass; PREEMERGENCE, Rate 125 g/ha): 0 | Plant response rating, Itchgrass (itchgrass; PREEMERGENCE, Rate 250 g/ha): 0 | Plant response rating, Johnsongrass (johnsongrass; POSTEMERGENCE, Rate 125 g/ha): 0 | Plant response rating, Johnsongrass (johnsongrass; POSTEMERGENCE, Rate 250 g/ha): 0 | Plant response rating, Johnsongrass (johnsongrass; PREEMERGENCE, Rate 125 g/ha): 0 | Plant response rating, Johnsongrass (johnsongrass; PREEMERGENCE, Rate 250 g/ha): 0 | Plant response rating, Large Crabgrass (large crabgrass; POSTEMERGENCE, Rate 125 g/ha): 0 | Plant response rating, Large Crabgrass (large crabgrass; POSTEMERGENCE, Rate 250 g/ha): 0 | Plant response rating, Large Crabgrass (large crabgrass; PREEMERGENCE, Rate 125 g/ha): 0 | Plant response rating, Large Crabgrass (large crabgrass; PREEMERGENCE, Rate 250 g/ha): 0 | Plant response rating, Peanuts (peanut; POSTEMERGENCE, Rate 125 g/ha): 0 | Plant response rating, Peanuts (peanut; POSTEMERGENCE, Rate 250 g/ha): 0 | Plant response rating, Peanuts (peanut; PREEMERGENCE, Rate 125 g/ha): 0 | Plant response rating, Peanuts (peanut; PREEMERGENCE, Rate 250 g/ha): 0 | Plant response rating, Pit Morninglory (pitted morningglory; POSTEMERGENCE, Rate 125 g/ha): 20 | Plant response rating, Pit Morninglory (pitted morningglory; POSTEMERGENCE, Rate 250 g/ha): 0 | Plant response rating, Pit Morninglory (pitted morningglory; PREEMERGENCE, Rate 125 g/ha): 0 | Plant response rating, Pit Morninglory (pitted morningglory; PREEMERGENCE, Rate 250 g/ha): 0 | Plant response rating, Purple Nutsedge (purple nutsedge; POSTEMERGENCE): 0 | Plant response rating, Purple Nutsedge (purple nutsedge; PREEMERGENCE): 0 | Plant response rating, S. Sandbur (sandbur; POSTEMERGENCE, Rate 125 g/ha): 0 | Plant response rating, S. Sandbur (sandbur; POSTEMERGENCE, Rate 250 g/ha): 0 | Plant response rating, S. Sandbur (sandbur; PREEMERGENCE, Rate 125 g/ha): 0 | Plant response rating, S. Sandbur (sandbur; PREEMERGENCE, Rate 250 g/ha): 0 | Plant response rating, Smooth Crabgras (smooth crabgrass; POSTEMERGENCE, Rate 125 g/ha): 0 | Plant response rating, Smooth Crabgras (smooth crabgrass; POSTEMERGENCE, Rate 250 g/ha): 0 | Plant response rating, Smooth Crabgras (smooth crabgrass; PREEMERGENCE, Rate 125 g/ha): 0 | Plant response rating, Smooth Crabgras (smooth crabgrass; PREEMERGENCE, Rate 250 g/ha): 0 | Plant response rating, Yellow Nutsedge (yellow nutsedge; POSTEMERGENCE): 0 | Plant response rating, Yellow Nutsedge (yellow nutsedge; PREEMERGENCE): 0
